Earlier results, collected in PMC7365463, “Oxfendazole mediates macrofilaricidal efficacy against the filarial nematode Litomosoides sigmodontis in vivo and inhibits Onchocerca spec. motility in vitro” (PLoS Neglected Tropical Diseases, 2020).

How the values were obtained:
[1] = test system: Brugia malayi; set-up: method as in Maeda 1988 (Ref. 14); details: 150-200L3 (SC), jird, IP 20mg/kg 5 cons. days, 9 months p.i., necropsy 5 weeks p.t.; ref Maeda 1988 (Ref. 14); cited from earlier work
[2] = test system: Brugia pahangi; set-up: method as in Devaney 1985 (Ref. 8); details: 50L3, balb/c, SC 10 or 50 mg/kg 5 cons. days, 4 days p.i., necropsy 3-4 weeks p.t.; ref Devaney 1985 (Ref. 8); cited from earlier work
[3] = set-up: method as in PMID 1687815; details: rat/sheep/cattle, published data; cited from earlier work
[4] = test system: L. loa microfilariae; set-up: method as in PMID 30926803; details: L. loa mouse model; cited from earlier work

Row | SMILES | Reduction of worm burden [1] [%] | Reduction of worm burden [2] [%] | Bioavailability (F) [3] [%] | microfilaricidal efficacy against L. loa [4]
1 | COC(=O)Nc1nc2cc(C(=O)c3ccc(F)cc3)ccc2[nH]1 [flubendazole] | 100 | 100 | – | –
2 | COC(=O)Nc1nc2ccc([S+]([O-])c3ccccc3)cc2[nH]1 (stereo not shown) [oxfendazole] | – | – | >50 | lacks such a microfilaricidal efficacy
